Assays:
[1] = system: GI transit; experiment: GI transit score (GITS) by transit of radio-opaque markers (SITZMARKS) in subjects given loperamide; format: in vivo, healthy subjects; details: for GI Score: x-ray Day 4, group mean, normal 255.56
Method: Subjects were randomly assigned to receive one of the following five treatments: • Group 1: […] Study Assessments Subjects were assessed for their pain at the I.V. infusion site using a categorical four-point verbal scale (i.e., no discomfort/pain, mild discomfort/pain, moderate pain, or severe pain). The Investigator also assessed certain characteristics (e.g., erythema) of the I.V. site (i.e., none, mild, moderate, or severe). Abdominal x-rays and x-rays of stool samples were performed to determine the location of the […] markers. Oral […] capsules were administered on Days 1, 2, and 3 at the same time that study medication is administered each day.

[2] = molecular target: μ opioid receptors in the GI tract (Homo sapiens, UniProt P35372); experiment: Free alvimopan plasma concentration after a 12 mg oral dose before surgery, compared with Ki; format: in vivo, patients
Chain of μ opioid receptors in the GI tract (P35372 whole entry): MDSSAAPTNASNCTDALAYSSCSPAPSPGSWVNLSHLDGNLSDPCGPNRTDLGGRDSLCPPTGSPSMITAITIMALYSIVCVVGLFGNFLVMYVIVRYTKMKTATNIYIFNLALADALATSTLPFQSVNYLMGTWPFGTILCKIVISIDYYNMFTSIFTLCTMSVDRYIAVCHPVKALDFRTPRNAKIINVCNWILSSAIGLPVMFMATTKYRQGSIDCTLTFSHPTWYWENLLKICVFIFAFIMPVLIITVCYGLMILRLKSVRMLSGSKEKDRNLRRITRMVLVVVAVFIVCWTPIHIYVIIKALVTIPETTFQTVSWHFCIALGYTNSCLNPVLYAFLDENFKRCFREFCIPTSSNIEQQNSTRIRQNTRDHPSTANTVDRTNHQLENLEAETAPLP
Method: A Practical Introduction to Structure, Mechanism, and Data Analysis, 2nd Edition, (New York: Wiley-VCH, 2000), page 88, the disclosure of which is incorporated herein by reference.
Twelve milligrams of alvimopan (two 6 mg capsules) was administered orally to patients about 120 minutes prior to surgery. The free alvimopan plasma concentration was measured for about 24 hours.

[3] = Plasma exposure (AUC (τ)) of I.V. alvimopan given for 4 days with loperamide; format: in vivo, healthy subjects; details: group mean
Method: Subjects were randomly assigned to receive one of the following five treatments: • Group 1: […] Study Assessments Serial blood samples were collected for the determination of concentrations of alvimopan and its amide hydrolysis metabolite in plasma. The appropriate dose was drawn into the delivery system, normal saline was added to bring the total volume to 6 mL, and the contents will be mixed thoroughly. Placebo for alvimopan I.V. was 6 mL of normal saline. […] The first eight subjects in each treatment group followed a full sampling schedule and the last four subjects followed a sparse sampling schedule. For the first eight subjects (full sampling schedule), blood samples was collected just prior to administration of alvimopan I.V. on Days 1 through 4 (four samples); and at 0.5, 1, 1.5, 2, 5, 10, 20, 30, and 60 minutes and at 2, 4, 6, 8, 10, 12, 16, 24, 48, 72, 96, 120, 144, and 168 hours after the end of the infusion of alvimopan I.V. on Day 4. This is a total of 27 samples per subject (135 mL per subject). For the last four subjects in each treatment group (sparse sampling schedule), blood was collected prior to administration of alvimopan I.V. on Days 1 through 4 (four samples), and immediately following the last infusion on Day 4. Subjects were randomized to have one sample collected during each of the following intervals, relative to the end of the infusion on Day 4: […]

[4] = Solubility in water; format: physicochemical; details: except at low or high pH conditions
[5] = Group 3 (alvimopan 1 mg I.V. b.i.d. + loperamide 2 mg p.o. q.i.d.)
[6] = Group 4 (alvimopan 0.45 mg I.V. b.i.d. + loperamide 2 mg p.o. q.i.d.)
[7] = Group 5 (alvimopan 0.1 mg I.V. b.i.d. + loperamide 2 mg p.o. q.i.d.)

Compound | GI Score ([1]; Group 2: loperamide 2 mg p.o. q.i.d. + placebo for alvimopan I.V.) | free plasma concentrations versus saturation of μ opioid receptors in the GI tract ([2]; single 12 mg oral dose (two 6 mg capsules), about 120 minutes prior to surgery, FIG. 1) | Maximum free plasma concentrations achieved relative to the Ki ([2]; single 12 mg oral dose, FIG. 1) | receptor occupancy at 12 mg ([2]; single 12 mg oral dose, read-out: estimated receptor occupancy) | AUC (τ) of Alvimopan [3, 5] | AUC (τ) of Alvimopan [3, 6] | AUC (τ) of Alvimopan [3, 7] | GI Score [1, 5] | GI score compared with Group 2 (loperamide + placebo) and normal (Group 1) ([1]; Group 4) | GI Score [1, 6] | GI score compared with Group 2 (loperamide + placebo) and normal (Group 1) ([1]; Group 5) | GI Score [1, 7] | solubility in water [4]
CN(C)C(=O)C(CCN1CCC(O)(c2ccc(Cl)cc2)CC1)(c1ccccc1)c1ccccc1 [loperamide, reference compound] | 208.67 | – | – | – | – | – | – | – | – | – | – | – | –
C[C@H]1CN(C[C@H](Cc2ccccc2)C(=O)NCC(=O)O)CC[C@@]1(C)c1cccc(O)c1 [alvimopan, [[(2S)-2-[[(3R,4R)-4-(3-hydroxyphenyl)-3,4-dimethylpiperidin-1-yl]methyl]-3-phenylpropanoyl]amino]acetic acid dihydrate] | – | sufficient to substantially saturate μ opioid receptors in the GI tract | 11 fold | > 68% | 4.36 ng·mL/h | 22.06 ng·mL/h | 49.79 ng·mL/h | 231 | statistically different from Group 2 | 274.62 | statistically different from Group 2 | 278.5 | low solubility in water

— patent publication US8946262B2, “Methods of preventing and treating gastrointestinal dysfunction” (Adolor Corporation, priority 2003, dated 2015)
